Laboratory results taken from patent US8415272B2, “Quinoline derivatives and their use as fungicides” (Syngenta Crop Protection LLC, priority 2008, dated 2013).

Key:
Septoria tritici = test: Growth inhibition in nutrient broth, Septoria tritici (leaf blotch), photometric; format: cell-based; conditions: Zymoseptoria tritici, PDB broth, 24 C, 72 hrs, read-out: control of fungal infection, Septoria tritici
Botrytis cinerea = test: Leaf disk assay, Botrytis cinerea (grey mould) on bean, preventive; format: in vivo; conditions: foliar, 96 h, bean leaf disks, assessed four days after inoculation, read-out: control of fungal infection, Botrytis cinerea
Phytophthora infestans = test: whole plant or invertebrate; format: in vivo; conditions: in Solanum lycopersicum, foliar, 96 h, read-out: control of fungal infection, Phytophthora infestans
Plasmopara viticola = test: Leaf disk assay, Plasmopara viticola (downy mildew of grapevine), preventive; format: in vivo; conditions: foliar, 168 h, grapevine leaf disks, assessed seven days after inoculation, read-out: control of fungal infection, Plasmopara viticola
Pythium ultimum = test: Growth inhibition in potato dextrose broth, Pythium ultimum (damping off), photometric; format: cell-based; conditions: Globisporangium ultimum, 24° C., 48 hours, read-out: control of fungal infection, Pythium ultimum
Outline: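 Growth inhibition was read photometrically at 48 hours after incubation at 24° C. Test compound was diluted from DMSO to 20 ppm in water and combined with potato dextrose broth seeded with Pythium ultimum mycelial fragments.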

Pyrenophora teres = test: Leaf disk assay, Pyrenophora teres (barley net blotch), preventive; format: in vivo; conditions: foliar, 96 h, barley leaf segments, assessed four days after inoculation, read-out: control of fungal infection, Pyrenophora teres
Protocol: The compounds were tested in a leaf disk assay, with methods described below. The test compounds were dissolved in DMSO and diluted into water to 200 ppm. In the case of the test on Pythium ultimum, they were dissolved in DMSO and diluted into water to 20 ppm. Pyrenophora teres (barley net blotch): Barley leaf segments were placed on agar in a 24-well plate and sprayed with a solution of the test compound. After allowing to dry completely, for between 12 and 24 hours, the leaf disks were inoculated with a spore suspension of the fungus. After appropriate incubation the activity of a compound was assessed four days after inoculation as preventive fungicidal activity.

Septoria nodorum = test: Leaf disk assay, Septoria nodorum (wheat glume blotch), preventive; format: in vivo; conditions: Parastagonospora nodorum, foliar, 96 h, wheat leaf segments, assessed four days after inoculation, read-out: control of fungal infection, Septoria nodorum
[1] = test system: Puccinia recondita f.sp. tritici; test: Leaf disk assay, Puccinia recondita f.sp. tritici (wheat brown rust), preventive; format: in vivo; conditions: foliar, 216 h, wheat leaf segments, assessed nine days after inoculation, read-out: control of fungal infection, Puccinia recondita f.sp. tritici
[2] = test system: Erysiphe graminis f.sp. tritici; test: Leaf disk assay, Erysiphe graminis f.sp. tritici (wheat powdery mildew), preventive; format: in vivo; conditions: Blumeria graminis, foliar, 96 h, wheat leaf segments, assessed four days after inoculation, read-out: control of fungal infection, Erysiphe graminis f.sp. tritici
Outline: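 Preventive protocol: compound at 200 ppm in water (from DMSO) sprayed onto wheat leaf segments on agar, dried 12–24 h, then spore-inoculated. Fungicidal activity was assessed four days post-inoculation.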

Fusarium culmorum = test: Growth inhibition in nutrient broth, Fusarium culmorum (root rot), photometric; format: cell-based; conditions: 48 h, read-out: control of fungal infection, Fusarium culmorum
Outline: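 Fusarium culmorum conidia in potato dextrose broth were added to compounds in DMSO. Plates were incubated at 24 C for 48 hrs, with growth inhibition read photometrically. […]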

Compound | melting point [°C] | inhibition of growth at 60 ppm (Septoria tritici) [%] | pest or weed control at 200 ppm (Botrytis cinerea) [%] | pest or weed control at 200 ppm (Phytophthora infestans) [%] | pest or weed control at 200 ppm (Plasmopara viticola) [%] | inhibition of growth at 20 ppm (Pythium ultimum) [%] | pest or weed control at 200 ppm (Pyrenophora teres) [%] | pest or weed control at 200 ppm (Septoria nodorum) [%] | pest or weed control at 200 ppm [1] [%] | pest or weed control at 200 ppm [2] [%] | inhibition of growth at 60 ppm (Fusarium culmorum) [%]
C#Cc1cnc2ccc(OC(SC)C(=O)N(O)C(C)(C)C)cc2c1 (centres unmarked) [Compound 147, N-tert-Butyl-2-(3-ethynyl-quinolin-6-yloxy)-N-hydroxy-2-methylsulfanyl-acetamide] | 164 | – | – | – | – | – | – | – | – | – | –
C#Cc1cnc2ccc(OC(SC)C(=O)NC(C)(C#C)CO)cc2c1 (centres unmarked) [Compound 160, 2-(3-ethynyl-quinolin-6-yloxy)-N-(1-hydroxymethyl-1-methylprop-2-ynyl)-2-methylsulfanyl-acetamide] | 149 to 150 | – | – | – | – | – | – | – | – | – | –
C#Cc1cnc2ccc(OC(SC)C(=O)NC(C)(C)CO)cc2c1 (centres unmarked) [Compound 168, 2-(3-ethynyl-quinolin-6-yloxy)-N-(2-hydroxy-1,1-dimethyl-ethyl)-2-methylsulfanyl-acetamide] | 149 to 151 | – | – | – | – | – | – | – | – | – | –
C#Cc1cnc2ccc(OC(SC)C(=O)NC(C)(C#C)CO)cc2c1 (centres unmarked) [Compound 173, 2-(3-Ethynyl-quinolin-6-yloxy)-N-(1-hydroxymethyl-1-methyl-prop-2-ynyl)-2-methylsulfanyl-acetamide] | 150 to 155 | – | – | – | – | – | – | – | – | – | –
C#Cc1cnc2cc(F)c(OC(SC)C(=O)NC(C)(C#N)CO)cc2c1 (centres unmarked) [Compound 174, N-(1-Cyano-2-hydroxy-1-methyl-ethyl)-2-(3-ethynyl-7-fluoro-quinolin-6-yloxy)-2-methylsulfanyl-acetamide] | 80 to 83 | – | – | – | – | – | – | – | – | – | –
CSC(Oc1cc(C)c2ncc(C#CCO)cc2c1)C(=O)NC(C)(C)C (centres unmarked) [Example 17] | – | ≥ 60 | ≥ 60 | ≥ 60 | ≥ 60 | ≥ 60 | – | – | – | – | –
C#Cc1cnc2c(Cl)cc(OC(SC)C(=O)NC(C)(C)C#CC)cc2c1 (centres unmarked) [Example 20] | – | ≥ 60 | ≥ 60 | ≥ 60 | ≥ 60 | ≥ 60 | ≥ 60 | ≥ 60 | ≥ 60 | ≥ 60 | ≥ 60
COCC#CC(C)(C)NC(=O)C(Oc1cc(C)c2ncc(C#CCO)cc2c1)SC (centres unmarked) [Example 28] | – | – | ≥ 60 | ≥ 60 | – | ≥ 60 | – | – | – | – | –
C#CCOCC(C)(C)NC(=O)C(Oc1ccc2ncc(C#C)cc2c1)SC (centres unmarked) [Example 30] | – | ≥ 60 | ≥ 60 | ≥ 60 | ≥ 60 | ≥ 60 | ≥ 60 | ≥ 60 | ≥ 60 | ≥ 60 | ≥ 60
C#CCC(C)(C)NC(=O)C(Oc1ccc2ncc(C#C)cc2c1)SC (centres unmarked) [Example 31] | – | ≥ 60 | ≥ 60 | ≥ 60 | ≥ 60 | ≥ 60 | ≥ 60 | ≥ 60 | ≥ 60 | ≥ 60 | ≥ 60
COCC#Cc1cnc2ccc(OC(SC)C(=O)NC(C)(C)C#CCOC)cc2c1 (centres unmarked) [Example 44] | – | ≥ 60 | ≥ 60 | ≥ 60 | ≥ 60 | ≥ 60 | – | – | – | ≥ 60 | –
CC#CC(C)(C)NC(=O)C(Oc1ccc2ncc(C#CCOC)cc2c1)SC (centres unmarked) [Example 45] | – | ≥ 60 | ≥ 60 | ≥ 60 | ≥ 60 | ≥ 60 | – | – | – | ≥ 60 | –
CC#Cc1cnc2ccc(OC(SC)C(=O)NC(C)(C)C#CC)cc2c1 (centres unmarked) [Example 56] | – | ≥ 60 | ≥ 60 | ≥ 60 | ≥ 60 | ≥ 60 | – | ≥ 60 | – | ≥ 60 | –
C#CCOCC#CC(C)(C)NC(=O)C(Oc1cc(Cl)c2ncc(C#C)cc2c1)SC (centres unmarked) [Example 63] | – | ≥ 60 | ≥ 60 | ≥ 60 | ≥ 60 | ≥ 60 | ≥ 60 | ≥ 60 | ≥ 60 | ≥ 60 | –
C#Cc1cnc2cc(F)c(OC(SC)C(=O)NC(C)(C)C#CCOC)cc2c1 (centres unmarked) [Example 66] | – | ≥ 60 | ≥ 60 | ≥ 60 | ≥ 60 | ≥ 60 | ≥ 60 | ≥ 60 | ≥ 60 | ≥ 60 | ≥ 60
C#Cc1cnc2c(Br)cc(OC(SC)C(=O)NC(C)(C)C#CCOC)cc2c1 (centres unmarked) [Example 70] | – | ≥ 60 | ≥ 60 | ≥ 60 | ≥ 60 | ≥ 60 | ≥ 60 | ≥ 60 | ≥ 60 | ≥ 60 | –
C#CCOCCC(C)(C#N)NC(=O)C(Oc1ccc2ncc(C#C)cc2c1)SC (centres unmarked) [Example 72] | – | ≥ 60 | ≥ 60 | ≥ 60 | ≥ 60 | ≥ 60 | ≥ 60 | ≥ 60 | ≥ 60 | ≥ 60 | –
C#Cc1cnc2c(C)cc(OC(SC)C(=O)NC(C)(C)C=O)cc2c1 (centres unmarked) [Example 73] | – | ≥ 60 | ≥ 60 | ≥ 60 | ≥ 60 | ≥ 60 | ≥ 60 | ≥ 60 | – | ≥ 60 | –
C#CCC(C)(C)NC(=O)C(Oc1cc(Cl)c2ncc(C#C)cc2c1)SC (centres unmarked) [Example 75] | – | ≥ 60 | ≥ 60 | ≥ 60 | ≥ 60 | ≥ 60 | ≥ 60 | ≥ 60 | ≥ 60 | ≥ 60 | ≥ 60
CC#CC(C)(C)NC(=O)C(OC)Oc1ccc2ncc(C#C[Si](C)(C)C)cc2c1 (centres unmarked) [Example 79] | – | ≥ 60 | ≥ 60 | ≥ 60 | ≥ 60 | – | – | – | – | ≥ 60 | –
C#Cc1cnc2c(Br)cc(OC(SC)C(=O)NC(C)(C)C#CC)cc2c1 (centres unmarked) [Example 131] | – | ≥ 60 | – | ≥ 60 | ≥ 60 | ≥ 60 | ≥ 60 | ≥ 60 | ≥ 60 | ≥ 60 | ≥ 60
C#Cc1cnc2c(Br)cc(OC(SC)C(=O)NC(C)(C)C)cc2c1 (centres unmarked) [Example 132] | – | ≥ 60 | – | ≥ 60 | ≥ 60 | ≥ 60 | ≥ 60 | ≥ 60 | ≥ 60 | ≥ 60 | ≥ 60
C#Cc1cnc2c(F)c(F)c(OC(SC)C(=O)NC(C)(C)C)cc2c1 (centres unmarked) [Example 219] | – | ≥ 60 | – | ≥ 60 | ≥ 60 | ≥ 60 | ≥ 60 | ≥ 60 | ≥ 60 | ≥ 60 | ≥ 60
